Test results reported in patent US8946215B2, “Hydroxy-substituted imidazo[1,2-a]pyridinecarboxamides and their use” (Bayer Pharma Aktiengesellschaft, priority 2012, dated 2015).

What was measured:
[1] = Determination of pharmacokinetic parameters following intravenous and oral administration (rats); assay type: in vivo, male Wistar rats; conditions: following intravenous and peroral administration; for MRT / half-life: male, Wistar, rat, plasma; for MRT: read-out: MRT (Mean Residence Time); for half-life: read-out: t½ (terminal half life) (converted)
Experimental: B-6. Determination of Pharmacokinetic Parameters Following Intravenous and Oral Administration
The pharmacokinetic parameters of the compounds according to the invention are determined in male CD-1 mice, male Wistar rats and female beagles. Intravenous administration in the case of mice and rats is carried out by means of a species-specific plasma/DMSO formulation, and in the case of dogs by means of a water/PEG400/ethanol formulation. In all species, oral administration of the dissolved substance is performed via gavage, based on a water/PEG400/ethanol formulation.
The taking of blood from rats is simplified by inserting a silicone catheter into the right Vena jugularis externa prior to substance administration. The operation is carried out at least one day prior to the experiment with […] and administration of an analgesic (atropin/Rimadyl (3/1) 0.1 ml s.c.). The blood is taken (generally more than 10 time points) within a time window including terminal time points of at least 24 to a maximum of 72 hours after substance administration. When the blood is taken, it is passed into heparinised tubes. Then the blood plasma is obtained by centrifugation and is optionally stored at −20° C. until further processing.
An internal standard (which may also be a chemically unrelated substance) is added to the samples of the compounds according to the invention, calibration samples and qualifiers, and there follows protein precipitation by means of excess acetonitrile. Addition of a buffer solution matched to the LC conditions, and subsequent vortexing, is followed by centrifugation at 1000 g. The supernatant is analysed by LC-MS/MS using C18 reversed-phase columns and variable mobile phase mixtures.
The substances are quantified via the peak heights or areas from extracted ion chromatograms of specific selected ion monitoring experiments.
The plasma concentration/time plots determined are used to calculate the pharmacokinetic parameters such as AUC, Cmax, t1/2 (terminal half life), F (Bioavailability), MRT (Mean Residence Time) and CL (Clearance), using a validated pharmacokinetic calculation programme.
Since the substance quantification is carried out in plasma, it is necessary to determine the blood/plasma distribution of the substance in order to be able to adjust the pharmacokinetic parameters correspondingly. For this purpose, a defined amount of substance is incubated in heparinised whole blood of the species in question in a rocking roller mixer for 20 min. After centrifugation at 1000 g, the plasma concentration is measured (by means of LC-MS/MS; see above) and determined by calculating the ratio of the Cblood/Cplasma value.

[2] = molecular target: T1, recombinant guanylate cyclase reporter cell line (Rattus norvegicus, UniProt P19686+P20595); test: Action on recombinant guanylate cyclase reporter cell line; assay type: cell-based; conditions: in some cases mean values obtained from individual determinations
T1 construct: expressed in transfected cells
T1 sequence (P20595 1-619): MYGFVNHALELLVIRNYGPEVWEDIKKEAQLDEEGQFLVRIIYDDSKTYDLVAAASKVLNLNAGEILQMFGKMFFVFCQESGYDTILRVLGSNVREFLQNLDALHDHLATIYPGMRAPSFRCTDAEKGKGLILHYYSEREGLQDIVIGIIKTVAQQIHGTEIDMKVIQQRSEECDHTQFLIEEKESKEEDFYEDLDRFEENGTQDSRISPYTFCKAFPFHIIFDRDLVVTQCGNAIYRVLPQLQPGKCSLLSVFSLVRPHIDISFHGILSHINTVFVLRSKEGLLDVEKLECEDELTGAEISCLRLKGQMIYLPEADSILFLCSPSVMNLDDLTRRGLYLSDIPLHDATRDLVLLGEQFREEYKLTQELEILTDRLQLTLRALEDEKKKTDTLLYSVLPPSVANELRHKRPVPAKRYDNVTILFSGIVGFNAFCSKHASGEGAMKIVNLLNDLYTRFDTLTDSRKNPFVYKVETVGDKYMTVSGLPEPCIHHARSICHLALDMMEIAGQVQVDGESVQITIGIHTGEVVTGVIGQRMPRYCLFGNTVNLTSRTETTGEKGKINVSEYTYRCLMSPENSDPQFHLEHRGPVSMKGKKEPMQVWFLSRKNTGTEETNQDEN
T1 sequence (P19686 1-690): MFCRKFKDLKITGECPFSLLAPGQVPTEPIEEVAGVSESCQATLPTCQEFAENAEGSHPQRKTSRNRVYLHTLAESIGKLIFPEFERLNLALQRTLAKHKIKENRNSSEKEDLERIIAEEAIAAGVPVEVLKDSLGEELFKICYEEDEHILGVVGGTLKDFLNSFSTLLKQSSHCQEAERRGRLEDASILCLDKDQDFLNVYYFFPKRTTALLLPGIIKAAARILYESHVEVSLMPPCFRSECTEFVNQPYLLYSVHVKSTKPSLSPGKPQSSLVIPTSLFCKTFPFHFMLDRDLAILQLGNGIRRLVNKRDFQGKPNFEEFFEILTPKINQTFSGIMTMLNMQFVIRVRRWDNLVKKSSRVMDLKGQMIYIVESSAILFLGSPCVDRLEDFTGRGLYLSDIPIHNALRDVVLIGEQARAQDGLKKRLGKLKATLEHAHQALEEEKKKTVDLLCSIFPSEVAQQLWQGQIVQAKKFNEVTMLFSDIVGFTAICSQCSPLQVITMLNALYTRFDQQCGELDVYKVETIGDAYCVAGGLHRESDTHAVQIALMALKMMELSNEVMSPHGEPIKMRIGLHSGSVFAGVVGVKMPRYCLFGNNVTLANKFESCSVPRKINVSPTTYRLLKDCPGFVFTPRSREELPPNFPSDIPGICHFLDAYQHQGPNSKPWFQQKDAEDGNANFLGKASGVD
Method in brief: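 Cell-based reporter assay with recombinant guanylate cyclase expressed in a reporter cell line, per a published method. Activity reported as minimal effective concentration (MEC), in some cases as the mean of individual determinations.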

SMILES | MEC (minimal effective concentration) [2] [µM] | also measured
Cc1nc2c(OCc3ncccc3F)cc(Cl)cn2c1C(=O)NC(CCCC(F)(F)F)C(C)(C)O (single isomer, unassigned; ent-6) [Example 188, ent-6-chloro-8-[(3-fluoropyridin-2-yl)methoxy]-2-methyl-N-(7,7,7-trifluoro-2-hydroxy-2-methylheptan-3-yl)imidazo[1,2-a]pyridine-3-carboxamide (enantiomer A)] | 0.3 | AUCnorm [1]: 2.3 kg·h/L; CLblood [1]: 8.83 mL/min/kg; MRT [1]: 2.5 h; half-life [1]: 1.7 h
Cc1nc2c(OCc3ncccc3F)cc(Cl)cn2c1C(=O)NC(CCC(F)(F)C(F)(F)F)C(C)(C)O (single isomer, unassigned; ent-6) [Example 194, ent-6-chloro-8-[(3-fluoropyridin-2-yl)methoxy]-2-methyl-N-(6,6,7,7,7-pentafluoro-2-hydroxy-2-methylheptan-3-yl)imidazo[1,2-a]pyridine-3-carboxamide (enantiomer A)] | 0.53 | AUCnorm [1]: 2.9 kg·h/L; CLblood [1]: 7.33 mL/min/kg; MRT [1]: 8.4 h; half-life [1]: 6.2 h
Cc1cc(OCc2ncccc2F)c2nc(C)c(C(=O)NC(CCCC(F)(F)F)C(C)(C)O)n2c1 (single isomer, unassigned; ent-8) [Example 181, ent-8-[(3-fluoropyridin-2-yl)methoxy]-2,6-dimethyl-N-(7,7,7-trifluoro-2-hydroxy-2-methylheptan-3-yl)imidazo[1,2-a]pyridine-3-carboxamide (enantiomer B)] | 0.3 | AUCnorm [1]: 2.5 kg·h/L; CLblood [1]: 9.33 mL/min/kg; MRT [1]: 3.3 h; half-life [1]: 3.4 h
CCCC[C@@H](NC(=O)c1c(C)nc2c(OCc3c(F)cccc3F)cccn12)C(C)O (stereo partly drawn) [Example 140, 8-[(2,6-Difluorobenzyl)oxy]-N-[(3R)-2-hydroxyheptan-3-yl]-2-methylimidazo[1,2-a]pyridine-3-carboxamide] | 0.03 | 
CCCC[C@@H](NC(=O)c1c(C)nc2c(OCc3c(F)cccc3F)cccn12)C(O)C(F)(F)F (stereo partly drawn) [Example 141, 8-[(2,6-Difluorobenzyl)oxy]-2-methyl-N-[(3R)-1,1,1-trifluoro-2-hydroxyheptan-3-yl]imidazo[1,2-a]pyridine-3-carboxamide] | 0.1 | 
CCCC[C@@H](NC(=O)c1c(C)nc2c(OCc3c(F)cccc3F)cccn12)C(O)C(F)(F)F (stereo partly drawn) [Example 142, 8-[(2,6-Difluorobenzyl)oxy]-2-methyl-N-[(3R)-1,1,1-trifluoro-2-hydroxyheptan-3-yl]imidazo[1,2-a]pyridine-3-carboxamide] | 0.1 | 
CCCC[C@@H](NC(=O)c1c(C)nc2c(OCc3c(F)cccc3F)cccn12)C(C)(C)O [Example 147, 8-[(2,6-Difluorobenzyl)oxy]-N-[(3R)-2-hydroxy-2-methylheptan-3-yl]-2-methylimidazo[1,2-a]-pyridine-3-carboxamide] | 0.1 | 
Cc1nc2c(OCc3c(F)cccc3F)cccn2c1C(=O)NCCC(C)(C)O [Example 153, 8-[(2,6-difluorobenzyl)oxy]-N-(3-hydroxy-3-methylbutyl)-2-methylimidazo[1,2-a]pyridine-3-carboxamide] | 0.3 | 
CCCC[C@H](CO)NC(=O)c1c(C)nc2c(OCc3c(F)cccc3F)cc(C#N)cn12 [Example 157, 6-Cyano-8-[(2,6-difluorobenzyl)oxy]-N-[(2R)-1-hydroxyhexan-2-yl]-2-methylimidazo[1,2-a]-pyridine-3-carboxamide] | 0.065 | 
CCCC[C@H](CO)NC(=O)c1c(C)nc2c(OCCC(C)C)cccn12 [Example 159, N-[(2R)-1-Hydroxyhexan-2-yl]-2-methyl-8-(3-methylbutoxy)imidazo[1,2-a]pyridine-3-carboxamide] | 1.0 | 
COC(=O)[C@H](CO)NC(=O)c1c(C)nc2c(OCc3c(F)cccc3F)cccn12 [Example 164, Methyl N-({8-[(2,6-difluorobenzyl)oxy]-2-methylimidazo[1,2-a]pyridin-3-yl}carbonyl)-L-serinate] | 0.2 | 
Cc1nc2c(OCc3c(F)cccc3F)cccn2c1C(=O)N[C@@H](CO)C(C)(C)O [Example 165, 8-[(2,6-Difluorobenzyl)oxy]-N-[(2S)-3-dihydroxy-3-methylbutan-2-yl]-2-methylimidazo[1,2-a]-pyridine-3-carboxamide] | 1.0 | 
CCCC[C@H](CO)NC(=O)c1c(C)nc2c(OCCC(C)C)cc(C)cn12 [Example 166, N-[(2R)-1-Hydroxyhexan-2-yl]-2,6-dimethyl-8-(3-methylbutoxy)imidazo[1,2-a]pyridine-3-carboxamide] | 1.0 | 
CCCC[C@H](CO)NC(=O)c1c(C)nc2c(OCCC(C(F)(F)F)C(F)(F)F)cc(C)cn12 [Example 169, N-[(2R)-1-Hydroxyhexan-2-yl]-2,6-dimethyl-8-[4,4,4-trifluoro-3-(trifluoromethyl)butoxy]imidazo-[1,2-a]pyridine-3-carboxamide] | 0.3 | 
Cc1cc(OCCC(C(F)(F)F)C(F)(F)F)c2nc(C)c(C(=O)NC3c4ccccc4CC3O)n2c1 (centres unmarked) [Example 172, N-(2-Hydroxy-2,3-dihydro-1H-inden-1-yl)-2,6-dimethyl-8-[4,4,4-trifluoro-3-(trifluoromethyl)-butoxy]imidazo[1,2-a]pyridine-3-carboxamide] | 1.0 | 
Cc1cc(OCCC(C(F)(F)F)C(F)(F)F)c2nc(C)c(C(=O)NC3CCCC3O)n2c1 (centres unmarked) [Example 173, N-(2-hydroxycyclopentyl)-2,6-dimethyl-8-[4,4,4-trifluoro-3-(trifluoromethyl)butoxy]imidazo[1,2-a]pyridine-3-carboxamide] | 3.0 | 
CCCC[C@H](CO)NC(=O)c1c(C)nc2c(OCc3c(F)cccc3F)c(F)ccn12 [Example 177, 8-[(2,6-Difluorobenzyl)oxy]-7-fluoro-N-[(2R)-1-hydroxyhexan-2-yl]-2-methylimidazo[1,2-a]-pyridine-3-carboxamide] | 1.0 | 
